1 compound from patent US11723888B2, “Polymer conjugated thyrointegrin antagonists” (NanoPharmaceuticals, LLC, priority 2021, dated 2023) can be followed below.

The target of the test is purified αvβ3 (Homo sapiens, UniProt P05106+P06756). Briefly: Binding affinity to purified αvβ3 (fibrinogen-coated plate, IC50). The following applies: purified αvβ3, fibrinogen-coated plates, 2 hours room temperature. Here is the method: The binding affinity of exemplary compounds is show in FIG. 11A, including P-bi-TET and m-P-mono-TET (both having n=36). The method was as follows: The binding affinity of P-bi-TET and m-P-mono-TET to purified αvβ3 was measured using the method described by Li, W., et al., Pharmacokinetics, Biodistribution, and Anti-Angiogenesis Efficacy of Diamino Propane Tetraiodothyroacetic Acid-conjugated Biodegradable Polymeric Nanoparticle. Sci Rep, 2019. 9(1): p. 9006. Ninety-six polystyrene microtiter plates coated with fibrinogen and incubated at 4° C. overnight. The wells were blocked with 3% BSA for 2 hours at room temperature and were washed with buffer A (50 mM Tris/HCl, 100 mM NaCl, 1 mM CaCl2), 1 mM MgCl2, 1% BSA) for three times. Integrins αvβ3 and increasing concentrations of P-bi-TET or m-P-mono-TET were added and incubated for 2 hours at room temperature, and then wells were washed three times with buffer A and incubated with a streptavidin HRP conjugate (1:1000 in buffer A) for 1 hour at room temperature. Finally, wells were washed three times with buffer A and 100 μL peroxidase substrate TMB was added, and the reaction was terminated after 30 minutes with 50 μL of 450 nm stop solution for TMB. Absorbance was determined at 450 nm with a Microplate Reader (Bio-Rad, Hercules, Calif., USA). […]
Chain of purified αvβ3 (P06756 31-889 limits assumed): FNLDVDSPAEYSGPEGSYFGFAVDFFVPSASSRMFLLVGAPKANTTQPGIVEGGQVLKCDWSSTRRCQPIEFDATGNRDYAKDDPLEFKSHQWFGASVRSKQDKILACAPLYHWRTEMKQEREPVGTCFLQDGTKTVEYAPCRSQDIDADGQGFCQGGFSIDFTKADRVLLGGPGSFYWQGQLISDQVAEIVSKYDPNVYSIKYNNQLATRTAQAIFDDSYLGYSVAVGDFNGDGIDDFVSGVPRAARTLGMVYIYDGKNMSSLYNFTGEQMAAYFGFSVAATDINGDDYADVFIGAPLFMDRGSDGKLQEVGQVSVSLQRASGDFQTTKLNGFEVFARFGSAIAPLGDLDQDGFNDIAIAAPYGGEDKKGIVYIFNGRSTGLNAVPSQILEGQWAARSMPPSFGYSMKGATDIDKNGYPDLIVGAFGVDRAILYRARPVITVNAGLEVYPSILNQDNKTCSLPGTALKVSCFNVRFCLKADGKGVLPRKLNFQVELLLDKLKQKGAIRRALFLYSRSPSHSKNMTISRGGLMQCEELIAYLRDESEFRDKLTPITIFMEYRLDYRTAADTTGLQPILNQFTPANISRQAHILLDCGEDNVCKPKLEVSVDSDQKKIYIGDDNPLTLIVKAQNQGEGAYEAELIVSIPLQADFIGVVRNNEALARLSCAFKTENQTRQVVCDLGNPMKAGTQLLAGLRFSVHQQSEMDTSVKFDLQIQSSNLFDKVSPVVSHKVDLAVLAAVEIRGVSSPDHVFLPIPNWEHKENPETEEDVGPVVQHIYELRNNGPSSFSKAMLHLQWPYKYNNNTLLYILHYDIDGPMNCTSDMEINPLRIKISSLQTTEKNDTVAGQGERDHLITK
Chain of purified αvβ3 (P06756 891-1048 limits assumed): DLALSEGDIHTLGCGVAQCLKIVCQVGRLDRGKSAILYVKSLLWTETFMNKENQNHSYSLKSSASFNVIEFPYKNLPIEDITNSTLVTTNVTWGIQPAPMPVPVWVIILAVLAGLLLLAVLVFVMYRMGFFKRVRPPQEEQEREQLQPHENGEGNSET
Chain of purified αvβ3 (P05106 27-788): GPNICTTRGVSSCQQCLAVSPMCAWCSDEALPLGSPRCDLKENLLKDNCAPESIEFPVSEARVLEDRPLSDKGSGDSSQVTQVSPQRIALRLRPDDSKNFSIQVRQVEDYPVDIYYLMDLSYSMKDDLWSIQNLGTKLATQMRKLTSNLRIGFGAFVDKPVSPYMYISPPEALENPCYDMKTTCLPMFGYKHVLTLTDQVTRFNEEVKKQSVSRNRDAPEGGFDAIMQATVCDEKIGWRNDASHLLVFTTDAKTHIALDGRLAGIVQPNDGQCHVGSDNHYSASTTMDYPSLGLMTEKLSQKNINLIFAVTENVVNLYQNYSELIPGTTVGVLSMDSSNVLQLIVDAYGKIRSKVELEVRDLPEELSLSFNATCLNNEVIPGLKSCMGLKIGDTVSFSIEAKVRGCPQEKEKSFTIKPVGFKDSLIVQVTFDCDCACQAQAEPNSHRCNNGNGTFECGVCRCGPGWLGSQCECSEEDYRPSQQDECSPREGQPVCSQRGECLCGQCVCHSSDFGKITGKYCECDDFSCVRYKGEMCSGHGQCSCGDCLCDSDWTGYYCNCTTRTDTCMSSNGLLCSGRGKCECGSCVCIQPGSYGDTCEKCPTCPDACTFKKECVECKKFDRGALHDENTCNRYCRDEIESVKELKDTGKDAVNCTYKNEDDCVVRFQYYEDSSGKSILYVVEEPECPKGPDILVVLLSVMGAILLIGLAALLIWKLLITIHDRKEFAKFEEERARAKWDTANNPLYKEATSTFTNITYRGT

As for `O=C(O)Cc1cc(I)c(Oc2cc(I)c(O)c(I)c2)c(I)c1` [Tetrac, tetraiodothyroacetic acid], the IC50 – broadly, the point on the concentration scale where inhibition reaches its midpoint – was 105.4 ± 0.86 nM.
